Assay results as given in patent US20210106703A1, “RADIOIMMUNOCONJUGATES IN COMBINATION WITH OTHER DRUGS AS TREATMENT AGAINST NHL” (Nordic Nanovector ASA, priority 2017, published 2021).
Entries after “also recorded” stand apart in the source; their conditions may differ.

Tests used:
[1] = system: DOHH2 cells; experiment: Proliferation study with Wee-1/Myt-1 inhibitors and ^177Lu-lilotomab; type: cell-based, human; conditions: DOHH2, inhibitor alone 1 μM for 18 h, 6 days after start
Experimental: (§1) Cells were treated for 18 h with 1 μM of the selective Wee-1 kinase inhibitor MK-1775 (Selleckchem, Houston, USA) or of the dual Wee-1/Myt-1 inhibitor PD-166285 (EMD Merck Millipore/Calbiochem, Molsheim, France) alone or in combination with 6 MBq/mL, 2 MBq/mL and 0.5 MB/mL of ^177Lu-lilotomab for Ramos, Rec-1 and DOHH2 cells respectively. At different times after start of incubation, proteins were extracted to measure the CDK1 phosphorylation levels, in parallel, proliferation was determined and at 18 h and 24 h after start of incubation, the percentage of cells in G2/M was assessed (experiments were performed three time except the cell cycle analysis).
(§2) The activity used for the treatment with ^177Lu-lilotomab was chosen to decrease the proliferation to about 50% for the three cell lines compared with non-treated cells.
(§3) Inhibition of G2/M cell cycle arrest radiosensitises radioresistant Ramos model. The Bliss independence mathematical model was next used to investigate the role of MK-1775 or PD-166285 on the response to ^177Lu-lilotomab. A theoretical therapeutic efficacy was calculated for the two combinations (MK-1775 or PD-166285) in the three cell lines. And the comparison between the experimental and the theoretical curves was done.
(§4) Theoretical efficacyRIT+inhib=EfficacyRIT+Efficacyinhib−(EfficacyRIT×Efficacyinhib)

[2] = system: Ramos cells; experiment: as above; type: cell-based, human; conditions: inhibitor 1 μM + ^177Lu-lilotomab 6 MBq/mL (RIT) for 18 h, 6 days after start
Experimental: as §1, §2, §3, §4

[3] = system: OCI-Ly8 cells; experiment: Cell cycle analysis (PI, Muse flow cytometer); type: cell-based, human; conditions: OCI-Ly8, 1 μM inhibitor + ^177Lu-lilotomab, versus ^177Lu-lilotomab alone
Experimental: Cells were harvested at 0 […], and fixed in 70% ethanol at -20° C. for at least 3 h. After staining with the Muse® Cell Cycle Assay Kit (Merck Millipore, Molsheim, France) using propidium iodide in the dark at room temperature for 30 min, cell cycle distribution was analyzed using a Muse® flow cytometer. The percentage of cells in the G0/G1, S and G2/M was calculated (mean of three experiments in triplicate) and the effect of WEE-1 and MYT-1 kinase inhibitors on the cell cycle was assessed.

[4] = system: Rec-1 cells; experiment: Cell cycle analysis (PI, Muse flow cytometer); type: cell-based, human; conditions: Rec-1, 1 μM inhibitor + ^177Lu-lilotomab, versus ^177Lu-lilotomab alone or untreated
Experimental: (§5) Cells were harvested at day 0, 2 h, 18 h, 1 d, 2 d, 3 d, of RIT then fixed in 70% ethanol at −20° C. for 3 hours and stained with Cell Cycle kit (with PI) reagent from Merck Millipore in the dark for 30 min at room temperature before analysis using a Muse® flow cytometer. The percentage of cells in G0/G1, S and G2/M phases was then calculated (mean of three experiments in triplicate).
(§6) At different times after start of incubation, proteins were extracted to measure the CDK1 phosphorylation levels, in parallel, proliferation was determined and at 18 h and 24 h after start of incubation, the percentage of cells in G2/M was assessed (experiments were performed three time except the cell cycle analysis).
(§7) Cells were harvested at 0 h, 2 h, 18 h, 1 d, 2 d, 3 d, and fixed in 70% ethanol at −20° C. for at least 3 h. After staining with the Muse® Cell Cycle Assay Kit (Merck Millipore, Molsheim, France) using propidium iodide in the dark at room temperature for 30 min, cell cycle distribution was analyzed using a Muse® flow cytometer. The percentage of cells in the G0/G1, S and G2/M was calculated (mean of three experiments in triplicate) and the effect of WEE-1 and MYT-1 kinase inhibitors on the cell cycle was assessed.

[5] = system: DOHH2 cells; experiment: Cell cycle analysis (PI, Muse flow cytometer); type: cell-based, human; conditions: DOHH2, 1 μM inhibitor + ^177Lu-lilotomab, versus ^177Lu-lilotomab alone or untreated
Experimental: as §5, §6, §7

[6] = system: Ramos cells; experiment: Cell cycle analysis (PI, Muse flow cytometer); type: cell-based, human; conditions: 1 μM inhibitor + ^177Lu-lilotomab, versus ^177Lu-lilotomab alone or untreated
Experimental: as §5, §6, §7

[7] = system: Rec-1 cells; experiment: Apoptosis induction (Annexin V/7-AAD, Muse flow cytometer); type: cell-based, human; conditions: Rec-1, 18 h exposure to unlabelled mAb, at peak time
Experimental: (§8) Cells were harvested at 0, 2 h, 18 h, 1 d, 2 d, 3 d of RIT. At each time point, apoptosis was detected with […] from Merck Millipore (Annexin V Kit with 7-AAD) in the dark for 30 min at room temperature before analysis using Muse® flow cytometer

[8] = system: DOHH2 cells; experiment: as above; type: cell-based, human; conditions: DOHH2, 18 h exposure to unlabelled mAb, plateau at 18 h
Experimental: as §8

[9] = system: Ramos cells; experiment: as above; type: cell-based, human; conditions: 18 h exposure to unlabelled mAb, at peak time
Experimental: as §8

[10] = system: OCI-Ly8 tumor xenografts; experiment: Treatment of mice with tumor xenografts; conditions: single agent
[11] = target: T1, CD37 receptor (Homo sapiens, UniProt P11049); conditions: cited from earlier work
T1 sequence (P11049 1-281): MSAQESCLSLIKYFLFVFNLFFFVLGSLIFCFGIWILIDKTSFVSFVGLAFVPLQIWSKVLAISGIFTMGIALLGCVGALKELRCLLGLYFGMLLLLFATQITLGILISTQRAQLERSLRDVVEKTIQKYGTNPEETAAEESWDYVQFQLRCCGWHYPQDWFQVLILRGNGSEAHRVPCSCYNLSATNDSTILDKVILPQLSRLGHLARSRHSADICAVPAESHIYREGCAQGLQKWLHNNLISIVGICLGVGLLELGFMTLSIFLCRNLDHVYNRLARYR

Molecule: CCN(CC)CCOc1ccc(Nc2ncc3cc(-c4c(Cl)cccc4Cl)c(=O)n(C)c3n2)cc1 [PD-166285]
- Proliferation (treated/untreated cells) [1]: 18%
- Proliferation (treated/untreated cells) [2]: ~10%
- Proportion of cells in G2/M, inhibitor combined with ^177Lu-lilotomab [3]: reduction of the fraction of G2/M cells
- Proportion of cells in G2/M, inhibitor combined with ^177Lu-lilotomab [4]: reduction of the fraction of G2/M cells
- Proportion of cells in G2/M, inhibitor combined with ^177Lu-lilotomab [5]: higher than that induced by the combination with the MK-1775; also recorded: reduction of the fraction of G2/M cells
- Proportion of cells in G2/M, inhibitor combined with ^177Lu-lilotomab [6]: reduction of the fraction of G2/M cells

B1: lilotomab: murine anti-CD37 IgG1 mAb (antibody, chains of the INN, looked up, V domains shown)
VH: EIQLQQSGPELVKPGASVKVSCKASGYSFTDYNMYWVKQSHGKSLEWIGYIDPYNGDTTYNQKFKGKATLTVDKSSSTAFIHLNSLTSEDSAVYYCARSPYGHYAMDYWGQGTSVTVSS
VL: DIVMTQSHKLLSTSVGDRVSITCKASQDVSTAVDWYQQKPGQSPKLLINWASTRHTGVPDRFTGSGSGTDYTLTISSMQAEDLALYYCRQHYSTPFTFGSGTKLEIK
- Apoptosis level [7]: No apoptosis was induced
- Apoptosis level [8]: No apoptosis was induced
- Apoptosis level [9]: No apoptosis was induced
- Therapeutic efficacy compared with control [10]: no therapeutic efficacy
- Equilibrium dissociation constant [11]: nanomolar
